23 compounds from patent publication US20110065687A1, “HYDRAZIDE COMPOUNDS AND USES THEREOF” (priority 2007, published 2011) can be followed below.

What all share (assay type): cell-based
The subject of assay [1] is C-myc transcription (cMYC RNA synthesis). The assay can be described thus: QPCR control assay of C-myc transcription. The note with it: IC50 pertaining to cMYC RNA synthesis. As to the method: A control assay that detected effects of the compounds on C-myc transcription also was conducted using a primer/probe set purchased from ABI (TaqMan Gene Expression Assay with assay ID: Hs99999003_m1). The following assay protocol was utilized:
(§1) Step 1. Reverse transcription of RNA to DNA
(§2) Fluorescence of digested label was detected and quantified. The effect of the compounds on rRNA synthesis were assessed in the assay, and provided in the table hereafter are IC50 values of selected compounds pertaining to rRNA synthesis and cMYC RNA synthesis.

For assay [2], the system named is rRNA synthesis from 45S rDNA. The assay can be described thus: QPCR assay of rRNA synthesis. To be noted: IC50 pertaining to rRNA synthesis, PCR with 5' ETS probe. The method, then:
A representative assay for determining whether a compound modulates rRNA production is set forth hereafter. Assays were conducted to determine the effects of compounds on rRNA synthesis from 45S rDNA. Synthesized rRNA was quantified by a polymerase chain reaction (PCR) assay. A primer/probe set was designed using Primer Express software and synthesized by Applied Biosystems. The 5′ ETS Probe utilized had the following sequence (at its 3′ end): 6FAM-TTG ATC CTG CCA GTA GC-MGBNFQ. The primer sequences were as follows:
as §1, §2

The subject of assay [3] is HCT-116 human colorectal carcinoma cells. The assay can be described thus: Alamar Blue cell proliferation assay, HCT-116. To be noted: 96 h, anti-proliferative effect, about four days with compound, HCT-116 cells, read-out: AB: HCT-116. The method, then:
(§3) A representative cell-proliferation assay protocol using Alamar Blue dye (stored at 4° C., use 20 ul per well) is described hereafter.
(§4) a. Split and trypsinize cells.
(§5) b. Count cells using hemocytometer.
(§6) c. Plate 4,000-5,000 cells per well in 100 μl of medium and seed into a 96-well plate according to the following plate layout. Add cell culture medium only to wells B10 to B12. Wells B1 to B9 have cells but no compound added.
(§7) d. Add 100 μl of 2× drug dilution to each well in a concentration shown in the plate layout above. At the same time, add 100 μl of media into the control wells (wells B10 to B12). Total volume is 200 μl /well.
(§8) e. Incubate four (4) days at 37° C., 5% CO2 in a humidified incubator.
(§9) f. Add 20 μl Alamar Blue reagent to each well.
(§10) g. Incubate for four (4) hours at 37° C., 5% CO2 in a humidified incubator.
(§11) h. Record fluorescence at an excitation wavelength of 544 nm and emission wavelength of 590 nm using a microplate reader.
(§12) In the assays, cells are cultured with a test compound for approximately four days, the dye then is added to the cells and fluorescence of […] dye is detected after approximately four hours. Different types of cells can be utilized in the assays (e.g., HCT-116 human colorectal carcinoma cells, PC-3 human prostatic cancer cells and MiaPaca human pancreatic carcinoma cells). Anti-proliferative effects of representative compounds are provided in the Table below (i.e., “AB: HCT-116” and “AB: MiaPaCa” columns).

The subject of assay [4] is MiaPaca human pancreatic carcinoma cells. The assay can be described thus: Alamar Blue cell proliferation assay, MiaPaCa. To be noted: MIA PaCa-2, 96 h, anti-proliferative effect, about four days with compound, read-out: AB: MiaPaCa. The method, then: as §3, §4, §5, §6, §7, §8, §9, §10, §11, §12

Some results are limits rather than exact numbers.

With `CN1CCN(NC(=O)c2c(=O)c3cc(F)c(N(C)Cc4cnccn4)nc3n3c2sc2ccccc23)CC1` [Cmpd 4], the IC50 is 7010 nM in assay [1], 291 nM in assay [2], 517 nM in assay [3] and 173 nM in assay [4].
For `O=C(NNc1ccccn1)c1c(=O)c2cc(F)c(N3CCOCC3)nc2n2c1sc1ccccc12` [Cmpd 15], the IC50 in assay [2] came out at 5550 nM; in assay [3], 1310 nM; in assay [4] it was 5360 nM.
`CN1CCN(NC(=O)c2c(=O)c3ccc(N4CCOCC4)nc3n3c2[nH]c2ccccc23)CC1` [Cmpd 24]: the IC50 in assay [3] amounted to 1420 nM.
Turning to `O=C(NN1CCOCC1)c1c(=O)c2cc(F)c(N3CCOCC3)nc2n2c1sc1ccccc12` [Cmpd 14], the results for the IC50 in assay [2], in assay [3] and in assay [4] were 2240 nM, 690 nM and 8090 nM, respectively.
For `CN1CCN(NC(=O)c2c(=O)c3ccc(N4CCCCC4)nc3n3c2sc2ccccc23)CC1` [Cmpd 11] the same measures were 3140 nM, 915 nM and 740 nM.
In the case of `COC[C@H]1CCCN1NC(=O)c1c(=O)c2ccc(N3CCOCC3)nc2n2c1sc1ccccc12` [Cmpd 9], the IC50 in assay [2] came out at 720 nM; in assay [3], 1170 nM; in assay [4], 596 nM.
Consider `O=C(NN1CCCC1)c1c(=O)c2ccc(N3CCOCC3)nc2n2c1sc1ccccc12` [Cmpd 7], for which the IC50 is 714 nM in assay [2], 653 nM in assay [3] and 955 nM in assay [4].
Consider `O=C(NN1CCCCC1)c1c(=O)c2ccc(N3CCOCC3)nc2n2c1sc1ccccc12` [Cmpd 8], for which the IC50 in assay [1] was 23600 nM; in assay [2] it was 458 nM; in assay [3], not below 50000 nM; in assay [4], not below 50000 nM.
Regarding `CN1CCN(NC(=O)c2c(=O)c3ccc(-c4ccc(CO)cc4)nc3n3c2sc2ccccc23)CC1` [Cmpd 20], the IC50 in assay [2] is 9710 nM; in assay [3], 7140 nM; in assay [4], not below 50000 nM.
On to `O=C(NN1CCOCC1)c1c(=O)c2ccc(N3CCOCC3)nc2n2c1sc1ccccc12` [Cmpd 6], for which the values for the IC50 in assay [2], in assay [3] and in assay [4] were 702 nM, 562 nM and 549 nM, respectively.
With `Cn1c2ccccc2n2c3nc(N4CCOCC4)c(F)cc3c(=O)c(C(=O)NN3CCOCC3)c12` [Cmpd 21], the IC50 in assay [3] worked out at 662 nM; in assay [4], 1300 nM.
`COc1ccc(CNc2ccc3c(=O)c(C(=O)NN4CCN(C)CC4)c4sc5ccccc5n4c3n2)cc1` [Cmpd 18]: the IC50 in assay [2] stood at 1290 nM; in assay [3], 985 nM; in assay [4] it was 893 nM.
Take `CN(C)NC(=O)c1c(=O)c2cc(F)c(N3CCOCC3)nc2n2c3ccccc3n(C)c12` [Cmpd 22]: the IC50 came to 1410 nM in assay [3] and 2190 nM in assay [4].
As to `CN1CCN(NC(=O)c2c(=O)c3ccc(N4CCC(O)C4)nc3n3c2sc2ccccc23)CC1` (stereo not drawn) [Cmpd 13], the IC50 in assay [2] was determined as 7320 nM; in assay [3], 5880 nM; in assay [4] it was 3310 nM.
As for `CN1CCN(NC(=O)c2c(=O)c3ccc(N4CCOCC4)nc3n3c2sc2ccccc23)CC1` [Cmpd 1], the IC50 in assay [1] stood at 1190 nM; in assay [2], 148 nM; in assay [3] it was 96 nM.
Consider `CN1CCN(NC(=O)c2c(=O)c3ccc(N(C)Cc4cnccn4)nc3n3c2sc2ccccc23)CC1` [Cmpd 2], for which the IC50 stood at 696 nM in assay [2], 249 nM in assay [3] and 1480 nM in assay [4].
For `CN(C)NC(=O)c1c(=O)c2ccc(N3CCOCC3)nc2n2c1sc1ccccc12` [Cmpd 10], the IC50 stood at 8990 nM in assay [1], 414 nM in assay [2], 523 nM in assay [3] and 444 nM in assay [4].
As for `CN1CCN(NC(=O)c2c(=O)c3ccc(NCCF)nc3n3c2sc2ccccc23)CC1` [Cmpd 12], the IC50 is 1580 nM in assay [2], 693 nM in assay [3] and 1030 nM in assay [4].
Consider `CN1CCN(NC(=O)c2c(=O)c3cc(F)c(N4CCOCC4)nc3n3c2sc2ccccc23)CC1` [Cmpd 3], for which the IC50 is 6060 nM in assay [1], 102 nM in assay [2], 265 nM in assay [3] and 225 nM in assay [4].
Taken in the same sequence, the figures for `O=C(NNC1=NCCN1)c1c(=O)c2cc(F)c(N3CCOCC3)nc2n2c1sc1ccccc12` [Cmpd 17] were 1100 nM, 38 nM, 1 nM and 3 nM.
For `CN1CCN(NC(=O)c2c(=O)c3cc(F)c(NN4CCN(C)CC4)nc3n3c2sc2ccccc23)CC1` [Cmpd 5], the IC50 is 632 nM in assay [2], 1750 nM in assay [3] and 486 nM in assay [4].
`CN(C)NC(=O)c1c(=O)c2ccc(N3CCOCC3)nc2n2c1[nH]c1ccccc12` [Cmpd 23]: in assay [3], the IC50 is 1640 nM.
On to `O=C(Nn1cnnc1)c1c(=O)c2cc(F)c(N3CCOCC3)nc2n2c1sc1ccccc12` [Cmpd 16], for which the IC50 in assay [1] stood at 14000 nM; in assay [2] it was 350 nM; in assay [3] it was 292 nM; in assay [4] it was 715 nM.
